# In patent US20110091638A1, “METHOD OF ANIMAL SLAUGHTER” (priority 2007, published 2011):
# What was measured:
# [1] = tested on: Mackerel (Scomber scombrus); test: Mackerel transferred into CO saturated seawater
# Procedure: (§1) Mackerel (Scomber scombrus) of about 700 g bodyweight were transferred from seawater into CO saturated seawater at about 16° C. in a 1 m×1 m plastic tank. CO saturation was achieved by pre-flushing the seawater (250 L) with 99.3% pure carbon monoxide (from Yara AS, Norway) for 5 minutes at 2.0 bar through two Wedge-lock diffusers (from Sterner Aqua, Norway). The CO content was monitored and never exceeded 50 ppm in the vicinity of the tank.
# [2] = tested on: Atlantic salmon (Salmo salar); test: Atlantic salmon transferred into CO saturated seawater
# Procedure: as §1
# Atlantic salmon (Salmo salar) of 0.7 to 1.5 kg bodyweight were transferred from seawater into CO saturated seawater (as in Example 1).
# [3] = tested on: Atlantic halibut (Hippoglossus hippoglossus); test: Atlantic halibut transferred into CO saturated seawater
# Procedure: as §1
# Atlantic halibut (Hippoglossus hippoglossus) of about 1.5 kg bodyweight were transferred into CO saturated seawater (as in Example 1).
smiles,measurement,setting,value
[C-]#[O+] [carbon monoxide],time until fish showed signs of fatigue,"[1]; about 16° C., mackerel about 700 g",about 5 minutes
same,further exposure time until fish died and turned belly up,[1]; continued exposure after signs of fatigue,5 min
same,further exposure time until fish died and turned belly up,[2]; continued exposure after anaesthesia,more than one
same,"time until fish were relaxed, sedated and finally anesthetised",[2]; salmon 0.7 to 1.5 kg,about 5 minutes
same,signs of stress or discomfort during exposure,[2]; until anaesthesia,no signs of stress or discomfort
same,further exposure time until fish died,[3]; continued exposure after loss of flight reaction,two
same,time until flight reaction was not pronounced,[3]; halibut about 1.5 kg,about 2 minutes
